Reference: patent US20150330991A1, “METHOD FOR IMPROVING TARGET AFFINITY OF PEPTIDE” (GWANGJU INSTITUTE OF SCIENCE AND TECHNOLOGY, priority 2012, published 2015)
Peptide text beside a SMILES is read from it.

Columns and labels:
ED-B protein = molecular target: T1, ED-B protein (Homo sapiens, UniProt P02751); assay: SPR (BIAcore) binding strength assay on immobilized biotin-EDB; details: for Kd: read-out: KD = Koff/Kon
T1 construct: Biopanning on ED-B domain
Description: The bipodal peptide binder found from BPB2EDB, BPB3EDB, and BPB4EDB maturation libraries were synthesized (Anygen, Korea). The affinity measurement was conducted using BIAcore X (Biacore AB, Uppsala, Sweden). 2,000 RU of biotin-EDB was allowed to flow on the streptavidin SA chip (Biacore) for immobilization. PBS (pH 7.4) was used as a running buffer, and kinetics at different concentrations was measured under a flow rate of 30 μl per minute. The affinity was calculated using BlAevaluation software (Biacore AB, Uppsala, Sweden).

streptavidin [1] = molecular target: T2, streptavidin (Streptomyces avidinii, UniProt P22629); assay: SPR (BIAcore) binding assay of Strep_opti1 and control peptide on immobilized streptavidin; details: from KD values
T2 sequence (P22629 25-183): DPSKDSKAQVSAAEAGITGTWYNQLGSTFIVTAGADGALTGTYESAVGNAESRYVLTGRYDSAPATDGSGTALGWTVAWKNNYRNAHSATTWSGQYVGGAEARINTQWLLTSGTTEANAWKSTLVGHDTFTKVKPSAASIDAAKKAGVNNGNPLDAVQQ
Description: (§1) A streptavidin-binding peptide optimized peptide and an existing peptide were synthesized (Anygen). The affinity measurement was conducted using BIAcore X (Biacore AB, Uppsala, Sweden). Here, 2000 RU of streptavidin was allowed to flow on the CM5 chip (Biacore) for immobilization. PBS (pH 7.4) was used as a running buffer, and the kinetics at different concentrations was measured under a flow rate of 30 μl per minute. The affinity was calculated using BlAevaluation software (Biacore AB, Uppsala, Sweden).

streptavidin [2] = molecular target: T2, streptavidin; assay: Phage ELISA specificity to streptavidin versus BSA, ovalbumin and VEGF; format: binding; details: ovalbumin, VEGF coated wells
Description: In order to investigate specificities to streptavidin, of peptides (Strep_opti1 and Strep_opti2) obtained through sequencing, recombinant phages expressing these peptides were used to investigate specificities to streptavidin, BSA, ovalbumin, and VEGF. First, 5 μg/ml streptavidin, BSA, ovalbumin, and VEGF were put in a 96-well ELISA plate (50 μl per well), and then allowed to stand at 4° C. overnight. Next day, all the wells were washed three times with 0.1% PBST, and blocked at room temperature for 2 hrs using 2% BSA diluted with PBS. Then, the solution was discarded, followed by washing with 0.1% PBST three times. 800 μl of recombinant phages of each of Strep_opti1 and Strep_opti2 and 200 μl of 10% BSA were added thereto, and each 100 μl was dispensed into streptavidin, BSA, ovalbumin, and VEGF wells, followed by standing at 27° C. for 1 hr. After washing five times with 0.1% PBST solution, the HRP-conjugated anti-M13 antibody (GE Healthcare) was diluted to 1:1,000, and then the reaction was performed at 27° C. for 1 hr. After washing five times with 0.1% PBST, 100 μl of the TMB solution was dispensed into each well to induce a colorimetric reaction, and then the reaction was stopped by adding 100 μl of 1 M HCl. The absorbance was measured at 450 nm.

VEGFR1 = VEGFR1 (Homo sapiens, UniProt P17948); assay: SPR (BIAcore) binding assay of VEGFR1_opti1 and control peptide on immobilized VEGFR1
VEGFR1, sequence (P17948 27-1338, species assumed): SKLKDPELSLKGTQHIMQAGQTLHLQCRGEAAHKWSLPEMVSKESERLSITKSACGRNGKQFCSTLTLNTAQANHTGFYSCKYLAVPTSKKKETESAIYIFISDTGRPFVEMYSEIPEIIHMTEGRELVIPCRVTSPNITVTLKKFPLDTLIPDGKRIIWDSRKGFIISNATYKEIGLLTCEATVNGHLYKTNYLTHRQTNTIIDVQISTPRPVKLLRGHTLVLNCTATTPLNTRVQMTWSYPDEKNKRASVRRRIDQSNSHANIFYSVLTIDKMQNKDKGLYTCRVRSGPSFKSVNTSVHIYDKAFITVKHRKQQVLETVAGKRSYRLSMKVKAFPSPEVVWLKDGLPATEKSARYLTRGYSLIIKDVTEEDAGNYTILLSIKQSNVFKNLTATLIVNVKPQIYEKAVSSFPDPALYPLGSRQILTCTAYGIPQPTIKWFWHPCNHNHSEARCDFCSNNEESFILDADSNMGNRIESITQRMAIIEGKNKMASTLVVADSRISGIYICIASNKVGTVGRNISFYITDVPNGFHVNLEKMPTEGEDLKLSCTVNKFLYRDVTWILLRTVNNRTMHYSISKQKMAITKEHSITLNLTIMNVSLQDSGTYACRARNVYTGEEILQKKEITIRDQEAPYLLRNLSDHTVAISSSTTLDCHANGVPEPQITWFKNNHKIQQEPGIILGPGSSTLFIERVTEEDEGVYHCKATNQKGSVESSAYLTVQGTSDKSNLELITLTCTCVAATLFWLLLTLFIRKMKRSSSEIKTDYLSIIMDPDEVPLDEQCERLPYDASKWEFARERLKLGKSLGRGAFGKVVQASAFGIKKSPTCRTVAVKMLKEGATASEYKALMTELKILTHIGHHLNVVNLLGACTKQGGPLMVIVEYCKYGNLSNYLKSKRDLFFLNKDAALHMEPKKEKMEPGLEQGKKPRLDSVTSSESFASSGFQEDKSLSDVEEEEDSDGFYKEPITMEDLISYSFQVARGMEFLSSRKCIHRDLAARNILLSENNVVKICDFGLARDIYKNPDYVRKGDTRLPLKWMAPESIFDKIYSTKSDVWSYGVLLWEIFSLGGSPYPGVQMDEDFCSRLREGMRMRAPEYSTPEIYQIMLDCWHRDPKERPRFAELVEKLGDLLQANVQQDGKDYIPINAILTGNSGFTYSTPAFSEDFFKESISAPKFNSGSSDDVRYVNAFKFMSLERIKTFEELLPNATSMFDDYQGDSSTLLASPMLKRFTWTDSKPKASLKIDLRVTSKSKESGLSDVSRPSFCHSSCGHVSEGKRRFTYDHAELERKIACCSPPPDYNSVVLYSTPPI
Description: as §1, with “VEGFR1-binding” for “streptavidin-binding”, “7000” for “2000”, “VEGFR1” for “streptavidin”

T1 sequence (P02751 1271-1359 limits assumed): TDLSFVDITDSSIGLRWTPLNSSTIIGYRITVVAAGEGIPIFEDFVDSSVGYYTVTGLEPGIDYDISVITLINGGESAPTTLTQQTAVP

Question: How did the Kd (ED-B protein; SPR, target binding kinetics) turn out when `CC[C@H](C)[C@H](NC(=O)CNC(=O)[C@H](CCCCN)NC(=O)[C@H](Cc1c[nH]c2ccccc12)NC(=O)[C@@H](NC(=O)[C@H](Cc1c[nH]c2ccccc12)NC(=O)[C@H](CCCCN)NC(=O)CNC(=O)[C@H](CC(N)=O)NC(=O)[C@H](CCC(=O)O)NC(=O)[C@H](Cc1c[nH]c2ccccc12)NC(=O)[C@@H](NC(=O)[C@H](Cc1c[nH]c2ccccc12)NC(=O)[C@H](CO)NC(=O)CNC(=O)[C@@H](NC(=O)[C@H](C)NC(=O)[C@H](CO)NC(=O)[C@H](CO)NC(=O)[C@H](CS)NC(=O)[C@@H](N)Cc1c[nH]cn1)C(C)C)[C@@H](C)O)[C@@H](C)O)C(=O)N[C@H](C(=O)N[C@@H](CCCNC(=N)N)C(=O)N[C@@H](CC(C)C)C(=O)N[C@@H](CCC(=O)O)C(=O)N[C@@H](CCC(N)=O)C(=O)O)[C@@H](C)CC` [BPB1EDB] (H-HCSSAVGSWTWENGKWTWKGIIRLEQ-OH; N-terminus and C-terminus assumed) was run?
Answer: 75 nM

Question: How did the “fold increase in affinity compared with BPB1” value (ED-B protein; through the optimization system) turn out when `CC[C@H](C)[C@H](NC(=O)CNC(=O)[C@H](CCCCN)NC(=O)[C@H](Cc1c[nH]c2ccccc12)NC(=O)[C@@H](NC(=O)[C@H](Cc1c[nH]c2ccccc12)NC(=O)[C@H](CCCCN)NC(=O)CNC(=O)[C@H](CC(N)=O)NC(=O)[C@H](CCC(=O)O)NC(=O)[C@H](Cc1c[nH]c2ccccc12)NC(=O)[C@@H](NC(=O)[C@H](Cc1c[nH]c2ccccc12)NC(=O)[C@H](CO)NC(=O)CNC(=O)[C@H](CCC(N)=O)NC(=O)[C@@H](NC(=O)[C@@H]1CCCN1C(=O)[C@H](CO)NC(=O)[C@H](CO)NC(=O)[C@H](CS)NC(=O)[C@H](CO)NC(=O)[C@@H](N)Cc1c[nH]cn1)[C@@H](C)CC)[C@@H](C)O)[C@@H](C)O)C(=O)N[C@H](C(=O)N[C@@H](CCCNC(=N)N)C(=O)N[C@@H](CC(C)C)C(=O)N[C@@H](CCC(=O)O)C(=O)N[C@@H](CCC(N)=O)C(=O)N[C@@H](CCC(N)=O)C(=O)N1CCC[C@H]1C(=O)O)[C@@H](C)CC` [BPB4EDB] (H-HSCSSPIQGSWTWENGKWTWKGIIRLEQQP-OH; N-terminus and C-terminus assumed) was run?
Answer: 21 fold

Question: For `CC(C)[C@H](NC(=O)[C@H](CCC(N)=O)NC(=O)[C@@H]1CCCN1C(=O)[C@H](Cc1c[nH]cn1)NC(=O)[C@H](C)NC(=O)CNC(=O)[C@H](CCCCN)NC(=O)[C@H](Cc1c[nH]c2ccccc12)NC(=O)[C@@H](NC(=O)[C@H](Cc1c[nH]c2ccccc12)NC(=O)[C@H](CCCCN)NC(=O)CNC(=O)[C@H](CC(N)=O)NC(=O)[C@H](CCC(=O)O)NC(=O)[C@H](Cc1c[nH]c2ccccc12)NC(=O)[C@@H](NC(=O)[C@H](Cc1c[nH]c2ccccc12)NC(=O)[C@H](CO)NC(=O)CNC(=O)CNC(=O)CNC(=O)[C@H](CCCCN)NC(=O)[C@H](CCC(=O)O)NC(=O)[C@H](Cc1ccccc1)NC(=O)[C@H](CCC(N)=O)NC(=O)[C@@H]1CCCN1C(=O)[C@H](Cc1c[nH]cn1)NC(=O)[C@H](CO)NC(=O)[C@@H](N)Cc1c[nH]c2ccccc12)[C@@H](C)O)[C@@H](C)O)C(=O)N[C@@H](CCCNC(=N)N)C(=O)O` [Strep_opti1] (H-WSHPQFEKGGGSWTWENGKWTWKGAHPQVR-OH; N-terminus and C-terminus assumed), which “fold increase in affinity compared with control peptide WSHPQFEK” value (streptavidin [1]) is on record?
Answer: 1223 fold

Question: And the “specificity (phage ELISA absorbance at 450 nm)” value (streptavidin [2])?
Answer: specifically bind to streptavidin

Question: With `CC[C@H](C)[C@H](NC(=O)CNC(=O)[C@H](CCCCN)NC(=O)[C@H](Cc1c[nH]c2ccccc12)NC(=O)[C@@H](NC(=O)[C@H](Cc1c[nH]c2ccccc12)NC(=O)[C@H](CCCCN)NC(=O)CNC(=O)[C@H](CC(N)=O)NC(=O)[C@H](CCC(=O)O)NC(=O)[C@H](Cc1c[nH]c2ccccc12)NC(=O)[C@@H](NC(=O)[C@H](Cc1c[nH]c2ccccc12)NC(=O)[C@H](CO)NC(=O)CNC(=O)[C@H](CCC(N)=O)NC(=O)[C@@H](NC(=O)[C@@H]1CCCN1C(=O)[C@H](CO)NC(=O)[C@H](CO)NC(=O)[C@@H](N)CS)[C@@H](C)CC)[C@@H](C)O)[C@@H](C)O)C(=O)N[C@H](C(=O)N[C@@H](CCCNC(=N)N)C(=O)N[C@@H](CC(C)C)C(=O)N[C@@H](CCC(=O)O)C(=O)N[C@@H](CCC(N)=O)C(=O)O)[C@@H](C)CC` [peptide 3] (H-CSSPIQGSWTWENGKWTWKGIIRLEQ-OH; N-terminus and C-terminus assumed) as the compound, how does the Koff (ED-B protein; SPR, target binding kinetics) read?
Answer: 5.1 × 10^−4 S^−1

Question: And the Kon (ED-B protein; SPR, target binding kinetics)?
Answer: 3.0 × 10^4 M^−1S^−1

Question: What about the Kd (ED-B protein; SPR, target binding kinetics) of the same compound?
Answer: 16 nM

Question: “GNQWFIGGGSWTWENGKWTWKGRIPKNR (VEGFR1_opti1)” was tested. Which SPR response increase (VEGFR1; at 5 μM peptide) did it give?
Answer: 45 RU

Question: And the “fold increase in affinity versus control peptide” value (VEGFR1; from RU at 5 μM versus 200 μM)?
Answer: about 360 fold

Question: With “WSHPQFEKGGGSWTWENGKWTWKG TLIHPM [Strep_opti2]” as the compound, how does the “specificity (phage ELISA absorbance at 450 nm)” value (streptavidin [2]) read?
Answer: specifically bind to streptavidin
